System: human IgG in mouse serum
Experiment: Immunoglobulin G (IgG) mRNA in vivo evaluation using lipid nanoparticle compositions
Parameters: species or system mice
Settings: LNP-formulated lipid, tail vein injection, μg IgG/mL serum 24 hours after administration; for Serum IgG @ 0.3 mg/kg: 0.3 mg mRNA/kg; for Serum IgG @ 1.0 mg/kg: 1.0 mg mRNA/kg
Protocol: A lipid of structure (I), DSPC, cholesterol and PEG-lipid are solubilized in ethanol at a molar ratio of 50:10:38.5:1.5 or 47.5:10:40.7:1.8. Lipid nanoparticles (LNP) are prepared at a total lipid to mRNA weight ratio of approximately 10:1 to 40:1. Briefly, the mRNA is diluted to 0.2 mg/mL in 10 to 50 mM citrate buffer, pH 4 to 6 or 10 to 25 mM acetate buffer, pH 4 to 6. Syringe pumps are used to mix the ethanolic lipid solution with the mRNA aqueous solution at a ratio of about 1:5 to 1:3 (vol/vol) with total flow rates above 15 mL/min. The ethanol is then removed, and the external buffer replaced with PBS by dialysis. Finally, the lipid nanoparticles are filtered through a 0.2 µm pore sterile filter.
Studies are performed in 6-8-week-old CD-1/ICR mice (Envigo, Charles River, or Inotiv) according to guidelines established by an institutional animal care committee (ACC) and the Canadian Council on Animal Care (CCAC). Varying doses of mRNA-lipid nanoparticle are systemically administered by tail vein injection and animals euthanized at a specific time point (e.g., 24 hours) post-administration. The whole blood is collected, and the serum subsequentially separated by centrifuging the tubes of the whole blood at 2000×g for 10 minutes at 4° C. and stored at −80° C. until use for analysis.
For immunoglobulin G (IgG) ELISA (Life Diagnostics Human IgG ELISA kit), the serum samples are diluted at 100 to 20,000 folds with 1× diluent solution. 100 μL of diluted serum is dispensed into anti-human IgG coated 96-well plate in duplicate alongside human IgG standards and incubated in a plate shaker at 150 rpm at 25° C. for 45 minutes. The wells are washed 5 times with 1× wash solution using a plate washer (400 μL/well). 100 μL of HRP conjugate is added into each well and incubated in a plate shaker at the same condition above. The wells are washed 5 times again with 1× wash solution using a plate washer (400 μL/well). 100 μL of TMB reagent is added into each well and incubated in a plate shaker at the same condition above. The reaction is stopped by adding 100 μL of Stop solution to each well. The absorbance is read at 450 nm (A450) with a microplate reader. The amount of human IgG in mouse serum is determined by plotting A450 values for the assay standard against human IgG concentration.
Representative compounds of the disclosure shown in Table 2 were formulated using the following molar ratio: 50% cationic lipid/10% distearoylphosphatidylcholine (DSPC)/38.5% Cholesterol/1.5% PEG lipid 2-[2-(ω-methoxy(polyethyleneglycol2000)ethoxy]-N,N-ditetradecylacetamide) or 47.5% cationic lipid/10% DSPC/40.7% Cholesterol/1.8% PEG lipid. Relative activity was determined by measuring luciferase expression in the liver 4 hours following administration via tail vein injection as described in Example 1 or by measuring the amount of human IgG in mouse serum as described in example 2. The activity was compared at a dose of 1.0 or 0.5 or 0.3 mg mRNA/kg and expressed as ng luciferase/g liver measured 4 hours after administration, as described in Example 1 or as μg IgG/mL serum measured 24 hours after administration, as described in Example 2. Compound numbers in Table 2 refer to the compound numbers of Table 1.

Row | SMILES | Serum IgG @ 0.3 mg/kg [µg/mL] | Serum IgG @ 1.0 mg/kg [µg/mL]
1 | CCCCCCCCCCCCN(CCCCCC)C(=O)CCCCCCCN(CCCCCCCC(=O)N(CCCCCC)CCCCCCCCCCCC)[C@H]1CC[C@@H](O)CC1 [(1S, 4S) I-52] | 40.24 ± 18.53 | –
2 | CCCCCCCCCCN(CCCCCCCCCC)C(=O)CCCCCCCN(CCCCCCCC(=O)N(CCCCCCCCCC)CCCCCCCCCC)C[C@H]1C[C@H]1CO (racemic) [(rac)-(1RS, 2SR) I-45, 8,8′-((((1s,2r)-2-(hydroxymethyl)cyclopropyl)methyl)azanediyl)bis(N,N-didecyloctanamide)] | 15.84 ± 3.20 | –
3 | CCCCCCCCCCN(CCCCCCCCCC)C(=O)CCCCCCCN(CCCCCCCC(=O)N(CCCCCCCCCC)CCCCCCCCCC)[C@H]1CC[C@@H](O)CC1 [(1S, 4S) I-9, 8,8′-(((1s,4s)-4-hydroxycyclohexyl)azanediyl)bis(N,N-didecyloctanamide)] | 97.57 ± 19.26 | 257.42 ± 91.86
4 | CCCCCCCCCCN(CCCCCCCCCC)C(=O)CCCCCCCN(CCCCCCCC(=O)N(CCCCCCCCCC)CCCCCCCCCC)[C@H]1CC[C@H](CO)CC1 [(1R, 4R) I-23, 8,8′-(((1R,4R)-4-(hydroxymethyl)cyclohexyl)azanediyl)bis(N,N-didecyloctanamide)] | 5.15 ± 1.83 | 37.79 ± 6.41
5 | C=CCCCCCCCCN(CCCCCCCCCC)C(=O)CCCCCCCN(CCCCCCCC(=O)N(CCCCCCCCC=C)CCCCCCCCCC)[C@H]1CC[C@@H](O)CC1 [(1S, 4S) I-51, 8,8′-(((1s,4s)-4-hydroxycyclohexyl)azanediyl)bis(N-(dec-9-en-1-yl)-N-decyloctanamide)] | 80.37 ± 26.77 | –
6 | CCCCCCCCCC(CCCCCCCCC)NC(=O)CCCCCCCN(CCCCCCCC(=O)NC(CCCCCCCCC)CCCCCCCCC)[C@H]1CC[C@@H](O)CC1 [(1S, 4S) I-50, 8,8′-(((1s,4s)-4-hydroxycyclohexyl)azanediyl)bis(N-(nonadecan-10-yl)octanamide)] | 29.82 ± 7.79 | –
7 | CCCCCCCCCCN(CCCCCCCCN(CCCCCCCCN(CCCCCCCCCC)C(=O)CCCCCCCCC)C[C@H]1C[C@@H](O)C1)C(=O)CCCCCCCCC [(1S, 3S) I-22, N,N′-(((((1S,3S)-3-hydroxycyclobutyl)methyl)azanediyl)bis(octane-8,1-diyl))bis(N-decyldecanamide)] | 50.48 ± 11.93 | –
8 | CCCCCCCCCCN(CCCCCCCCCC)C(=O)CCCCCCCN(CCCCCCCC(=O)N(CCCCCCCCCC)CCCCCCCCCC)[C@@H]1CCC[C@H]1O [(1R, 2R) I-48, 8,8′-(((1r,2r)-2-hydroxycyclopentyl)azanediyl)bis(N,N-didecyloctanamide)] | 25.27 ± 7.50 | 92.5 ± 20.18
9 | CCCCCCCCCCN(CCCCCCCCCC)C(=O)CCCCCCCN(CCCCCCCC(=O)N(CCCCCCCCCC)CCCCCCCCCC)[C@H]1CC[C@@H](CO)CC1 [(1S, 4S) I-23, 8,8′-(((1S,4S)-4-(hydroxymethyl)cyclohexyl)azanediyl)bis(N,N-didecyloctanamide)] | 34.48 ± 9.25 | 273.72 ± 52.70
10 | CCCCCCCCCCN(CCCCCCCCCC)C(=O)CCCCCCCCCN(CCCCCC(=O)N(CCCCCCCCCC)CCCCCCCCCC)[C@H]1CC[C@@H](O)CC1 [(15, 4S) I-61, N,N-didecyl-10-((6-(didecylamino)-6-oxohexyl)((1s,4s)-4-hydroxycyclohexyl)amino)decanamide] | 40.66 ± 9.70 | –
11 | CCCCCCCCCCN(CCCCCCCCCC)C(=O)CCCCCCCN(CCCCCCCC(=O)N(CCCCCCCCCC)CCCCCCCCCC)C1CC2(CC(O)C2)C1 (stereo not drawn) [Compound I-36, 8,8′-((6-hydroxyspiro[3.3]heptan-2-yl)azanediyl)bis(N,N-didecyloctanamide)] | 25.76 ± 8.65 | 171.89 ± 45.93
12 | CCCCCCCCCCN(CCCCCCCCCC)C(=O)CCCCCCCN(CCCCCCCC(=O)N(CCCCCCCCCC)CCCCCCCCCC)[C@H]1C[C@@H](O)C1 [(1S, 3S) I-10, 8,8′-(((1S,3S)-3-hydroxycyclobutyl)azanediyl)bis(N,N-didecyloctanamide)] | 27.62 ± 9.67 | 187.67 ± 66.41
13 | CCCCCCCCCCN(CCCCCCCCCC)C(=O)CCCCCCCN(CCCCCCCC(=O)N(CCCCCCCCCC)CCCCCCCCCC)CC1CCC(O)C1 (stereo not drawn) [Compound I-4, 8,8′-(((3-hydroxycyclopentyl)methyl)azanediyl)bis(N,N-didecyloctanamide)] | 32.39 ± 3.12 | 155.20 ± 15.34
14 | CCCCCCCCCCN(CCCCCCCCCC)C(=O)C(F)CCCCCCN(CCCCCCC(F)C(=O)N(CCCCCCCCCC)CCCCCCCCCC)CC[C@H]1C[C@@H](O)C1 (stereo partly drawn) [(1S, 3R) I-19, 8,8′-((2-((1S,3R)-3-hydroxycyclobutyl)ethyl)azanediyl)bis(N,N-didecyl-2-fluorooctanamide)] | 30.68 ± 8.05 | 267.70 ± 45.90
15 | CCCCCCCCCCN(CCCCCCCCCC)C(=O)CCCCCCCN(CCCCCCCC(=O)NC(CCCCCCCCC)CCCCCCCCC)[C@H]1CC[C@@H](O)CC1 [(1S, 4S) I-58, N,N-didecyl-8-(((1s,4s)-4-hydroxycyclohexyl)(8-(nonadecan-10-ylamino)-8-oxooctyl)amino)octanamide] | 61.75 ± 11.64 | –
16 | CCCCCCCCCCN(CCCCCCCCCC)C(=O)CCCCCCCN(CCCCCCCC(=O)N(CCCCCCCCCC)CCCCCCCCCC)[C@H]1CC[C@H](O)CC1 [(1R, 4R) I-9, 8,8′-(((1R,4R)-4-hydroxycyclohexyl)azanediyl)bis(N,N-didecyloctanamide)] | 45.52 ± 6.25 | 204.57 ± 48.15
17 | CCCCCCCCCCN(CCCCCCCCCC)C(=O)CCCCCCCN(CCCCCCCC(=O)N(CCCCCCCCCC)CCCCCCCCCC)C[C@H]1C[C@@H]1CO (racemic) [(rac)-(1RS, 2RS) I-45, 8,8′-((((1s,2s)-2-(hydroxymethyl)cyclopropyl)methyl)azanediyl)bis(N,N-didecyloctanamide)] | 10.95 ± 4.31 | –
18 | CCCCCCCCCCCCN(CCCCCCCC)C(=O)CCCCCCCN(CCCCCCCC(=O)N(CCCCCCCC)CCCCCCCCCCCC)[C@H]1CC[C@@H](O)CC1 [(1S, 4S) I-62, 8,8′-(((1s,4s)-4-hydroxycyclohexyl)azanediyl)bis(N-dodecyl-N-octyloctanamide)] | 48.49 ± 8.83 | –
19 | CCCCCCCCCCN(CCCCCCCCCC)C(=O)CCCCCCCN(CCCCCCCC(=O)N(CCCCCCCCCC)CCCCCCCCCC)[C@H]1CCCC[C@H]1O [(1S, 2R) I-16, 8,8′-(((1S,2R)-2-hydroxycyclohexyl)azanediyl)bis(N,N-didecyloctanamide)] | 19.42 ± 7.21 | 88.40 ± 26.36
20 | CCCCCCCCCCCCN(CCCCCCCC)C(=O)CCCCCCCN(CCCCCCCC(=O)N(CCCCCCCCCC)CCCCCCCCCC)[C@H]1CC[C@@H](O)CC1 [(1S, 4S) I-55, N,N-didecyl-8-((8-(dodecyl(octyl)amino)-8-oxooctyl)((1s,4s)-4-hydroxycyclohexyl)amino)octanamide] | 72.2 ± 14.87 | –
21 | CCCCCCCCCCN(CCCCCCCCCC)C(=O)C(F)CCCCCCN(CCCCCCC(F)C(=O)N(CCCCCCCCCC)CCCCCCCCCC)[C@H]1CC[C@H](O)CC1 (stereo partly drawn) [(1R, 4R) I-49, 8,8′-(((1r,4r)-4-hydroxycyclohexyl)azanediyl)bis(N,N-didecyl-2-fluorooctanamide)] | 28.94 ± 13.21 | 161.09 ± 11.20
22 | CCCCCCCCCCN(CCCCCCCCN(CCCCCCCCN(CCCCCCCCCC)C(=O)CCCCCCCCC)[C@H]1CC[C@@H](O)CC1)C(=O)CCCCCCCCC [(1S, 4S) I-63, N,N′-((((1s,4s)-4-hydroxycyclohexyl)azanediyl)bis(octane-8,1-diyl))bis(N-decyldecanamide)] | 39.32 ± 8.99 | –

Reference: patent publication US20240417370A1, “LIPIDS FOR USE IN LIPID NANOPARTICLE FORMULATIONS” (Acuitas Therapeutics, Inc., priority 2023, published 2024)
